Experiments:
[1] = biological target: T1, Alpha-1B adrenergic receptor (Rattus norvegicus, UniProt P15823); test: DRUGMATRIX: Alpha-1B adrenergic receptor radioligand binding (ligand: prazosin); type: cell membranes, Wistar, Liver, Membrane; conditions: Not Active = under 50% inhibition at 10 µM
T1 sequence (P15823 whole entry): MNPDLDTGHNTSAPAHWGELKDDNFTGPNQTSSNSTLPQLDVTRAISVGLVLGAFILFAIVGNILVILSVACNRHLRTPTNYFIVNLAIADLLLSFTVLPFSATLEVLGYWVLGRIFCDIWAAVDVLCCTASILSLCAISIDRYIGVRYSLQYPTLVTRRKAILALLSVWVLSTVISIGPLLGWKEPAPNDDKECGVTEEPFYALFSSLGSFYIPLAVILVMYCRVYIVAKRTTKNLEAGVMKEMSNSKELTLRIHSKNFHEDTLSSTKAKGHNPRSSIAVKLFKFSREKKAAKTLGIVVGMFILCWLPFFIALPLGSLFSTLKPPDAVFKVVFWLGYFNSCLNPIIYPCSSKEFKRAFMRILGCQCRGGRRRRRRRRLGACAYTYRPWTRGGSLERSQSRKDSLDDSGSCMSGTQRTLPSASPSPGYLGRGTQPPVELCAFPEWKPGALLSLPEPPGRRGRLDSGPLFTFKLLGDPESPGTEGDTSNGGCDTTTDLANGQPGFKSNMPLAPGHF

Estrogen receptor beta = Estrogen receptor beta (Homo sapiens, UniProt Q92731); conditions: sf9; further: in other assays of this panel Not Active means under 50% inhibition at 10 µM
[2] = biological target: C-C chemokine receptor type 2 (Homo sapiens, UniProt P41597); type: cell membranes, CHO-K1, Membrane; conditions: cho-k1; further: in other assays of this panel Not Active means under 50% inhibition at 10 µM
[3] = biological target: T2, Type-2 angiotensin II receptor (Homo sapiens, UniProt P50052); type: cell-based; conditions: cho-k1; further: in other assays of this panel Not Active means under 50% inhibition at 10 µM
T2 sequence (P50052 whole entry): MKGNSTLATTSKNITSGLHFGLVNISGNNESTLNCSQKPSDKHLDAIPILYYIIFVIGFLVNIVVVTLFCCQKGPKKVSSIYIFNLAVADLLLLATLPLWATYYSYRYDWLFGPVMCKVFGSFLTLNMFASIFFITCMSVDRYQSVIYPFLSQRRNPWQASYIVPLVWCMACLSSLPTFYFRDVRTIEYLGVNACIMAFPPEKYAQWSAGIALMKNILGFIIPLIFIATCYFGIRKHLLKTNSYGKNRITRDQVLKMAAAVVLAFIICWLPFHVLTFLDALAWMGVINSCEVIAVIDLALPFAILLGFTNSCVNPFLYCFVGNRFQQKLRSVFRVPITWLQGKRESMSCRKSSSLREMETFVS

Cytochrome P450 2D6 = Cytochrome P450 2D6 (Homo sapiens, UniProt P10635); conditions: bti-tn-5b1-4; further: in other assays of this panel Not Active means under 50% inhibition at 10 µM
[4] = DRUGMATRIX: Atrial Natriuretic Factor (ANF) radioligand binding (ligand: [125I] ANF (rat)); type: cell membranes, Cavia porcellus, Dunkin-Hartley, Adrenal gland, Membrane; conditions: Not Active = under 50% inhibition at 10 µM
[5] = biological target: T3, C-C chemokine receptor type 4 (Homo sapiens, UniProt P51679); type: cell membranes, Chem-1, Membrane; conditions: chem-1; further: in other assays of this panel Not Active means under 50% inhibition at 10 µM
T3 sequence (P51679 whole entry): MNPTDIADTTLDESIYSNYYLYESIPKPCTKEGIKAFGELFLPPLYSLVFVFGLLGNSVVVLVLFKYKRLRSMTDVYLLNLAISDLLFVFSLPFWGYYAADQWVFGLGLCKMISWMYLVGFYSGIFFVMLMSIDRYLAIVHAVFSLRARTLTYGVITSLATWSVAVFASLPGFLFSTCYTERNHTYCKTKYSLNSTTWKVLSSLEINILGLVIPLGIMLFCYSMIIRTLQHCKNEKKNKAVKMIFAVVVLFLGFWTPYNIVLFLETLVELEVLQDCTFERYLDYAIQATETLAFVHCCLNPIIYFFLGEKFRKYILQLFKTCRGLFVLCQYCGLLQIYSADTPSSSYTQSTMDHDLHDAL

[6] = DRUGMATRIX: Platelet-Derived Growth Factor (PDGF) radioligand binding (ligand: [125I] PDGF); type: cell-based; conditions: nih3t3; Not Active = under 50% inhibition at 10 µM

Cytochrome P450 2D6, sequence (P10635 whole entry): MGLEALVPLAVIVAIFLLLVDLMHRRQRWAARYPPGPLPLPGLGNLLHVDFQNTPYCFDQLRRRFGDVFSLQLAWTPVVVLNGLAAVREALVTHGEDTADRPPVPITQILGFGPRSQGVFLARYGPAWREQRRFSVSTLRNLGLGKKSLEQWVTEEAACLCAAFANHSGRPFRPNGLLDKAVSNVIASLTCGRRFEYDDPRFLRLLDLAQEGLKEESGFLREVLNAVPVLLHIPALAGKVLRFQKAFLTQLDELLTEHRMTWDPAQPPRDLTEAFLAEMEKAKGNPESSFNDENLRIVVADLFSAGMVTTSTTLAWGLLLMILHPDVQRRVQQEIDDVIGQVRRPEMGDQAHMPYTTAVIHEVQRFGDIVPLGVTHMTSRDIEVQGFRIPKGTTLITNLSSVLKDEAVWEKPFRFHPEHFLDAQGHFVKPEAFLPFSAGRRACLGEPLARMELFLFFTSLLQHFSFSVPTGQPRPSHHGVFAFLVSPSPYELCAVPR
C-C chemokine receptor type 2, sequence (P41597 whole entry): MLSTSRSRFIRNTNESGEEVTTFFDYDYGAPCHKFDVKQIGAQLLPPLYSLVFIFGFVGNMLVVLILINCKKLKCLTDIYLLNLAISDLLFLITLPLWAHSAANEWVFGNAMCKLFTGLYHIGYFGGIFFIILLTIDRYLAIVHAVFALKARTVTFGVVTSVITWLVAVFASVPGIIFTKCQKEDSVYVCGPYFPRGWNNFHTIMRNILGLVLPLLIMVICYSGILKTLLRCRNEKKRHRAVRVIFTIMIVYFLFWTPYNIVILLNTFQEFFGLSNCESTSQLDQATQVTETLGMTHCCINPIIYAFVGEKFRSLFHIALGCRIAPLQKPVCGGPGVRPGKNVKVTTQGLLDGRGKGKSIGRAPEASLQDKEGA
Estrogen receptor beta, sequence (Q92731 whole entry): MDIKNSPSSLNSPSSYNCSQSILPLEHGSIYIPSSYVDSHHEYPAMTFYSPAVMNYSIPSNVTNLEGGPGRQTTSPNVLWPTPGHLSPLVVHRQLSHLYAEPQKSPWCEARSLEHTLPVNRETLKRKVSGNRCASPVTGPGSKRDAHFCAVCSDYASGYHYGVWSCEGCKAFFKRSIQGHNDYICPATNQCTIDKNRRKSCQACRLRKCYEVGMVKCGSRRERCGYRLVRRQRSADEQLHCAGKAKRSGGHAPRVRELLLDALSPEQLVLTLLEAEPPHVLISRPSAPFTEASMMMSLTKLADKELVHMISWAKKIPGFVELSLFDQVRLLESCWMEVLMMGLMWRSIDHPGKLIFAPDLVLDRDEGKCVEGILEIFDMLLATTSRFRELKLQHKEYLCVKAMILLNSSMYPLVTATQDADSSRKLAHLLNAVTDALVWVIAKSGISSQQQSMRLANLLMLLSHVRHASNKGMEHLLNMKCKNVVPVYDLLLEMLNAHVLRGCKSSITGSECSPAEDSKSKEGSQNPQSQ

OC[C@H]1OC2C3[C@@H](CO)OC(O[C@H]4[C@H](O)[C@@H](O)[C@@H](O[C@H]5[C@H](O)[C@@H](O)[C@@H](O[C@H]6[C@H](O)[C@@H](O)[C@@H](O[C@H]7[C@H](O)[C@@H](O)[C@@H](O[C@H]8[C@H](O)[C@@H](O)[C@@H](O[C@H]9[C@H](O)[C@@H](O)C(OC1[C@H](O)[C@H]2O)O[C@@H]9CO)O[C@@H]8CO)O[C@@H]7CO)O[C@@H]6CO)O[C@@H]5CO)O[C@@H]4CO)[C@H](O)[C@H]3O
Not Active: IC50 [1] | IC50 (Estrogen receptor beta) | IC50 [2] | IC50 [3] | IC50 (Cytochrome P450 2D6) | Ki (Cytochrome P450 2D6) | IC50 [4] | Ki [4] | IC50 [5] | IC50 [6] | Ki [6]

C#C[C@]1(O)CC[C@H]2[C@@H]3CCC4=CC(=O)CC[C@@H]4[C@H]3CC[C@@]21C [NORETHINDRONE]
Not Active: IC50 [1] | IC50 (Estrogen receptor beta) | IC50 [2] | IC50 [3] | IC50 (Cytochrome P450 2D6) | Ki (Cytochrome P450 2D6) | IC50 [4] | Ki [4] | IC50 [5] | IC50 [6] | Ki [6]

Cl.NC[C@H]1CC[C@H](C(=O)Oc2ccc(CCC(=O)O)cc2)CC1 [CETRAXATE HYDROCHLORIDE]
Not Active: IC50 [1] | IC50 (Estrogen receptor beta) | IC50 [2] | IC50 [3] | IC50 (Cytochrome P450 2D6) | Ki (Cytochrome P450 2D6) | IC50 [4] | Ki [4] | IC50 [5] | IC50 [6] | Ki [6]

CC(C)Cn1cnc2c(N)nc3ccccc3c21 [IMIQUIMOD]
Not Active: IC50 [1] | IC50 (Estrogen receptor beta) | IC50 [2] | IC50 [3] | IC50 (Cytochrome P450 2D6) | Ki (Cytochrome P450 2D6) | IC50 [4] | Ki [4] | IC50 [5] | IC50 [6] | Ki [6]

O=C1CN(/N=C/c2ccc([N+](=O)[O-])o2)C(=O)N1 [NITROFURANTOIN]
Not Active: IC50 [1] | IC50 (Estrogen receptor beta) | IC50 [2] | IC50 [3] | IC50 (Cytochrome P450 2D6) | Ki (Cytochrome P450 2D6) | IC50 [4] | Ki [4] | IC50 [5] | IC50 [6] | Ki [6]

CC(C)Cc1ccc([C@H](C)C(=O)O)cc1 [DEXIBUPROFEN]
Not Active: IC50 [1] | IC50 (Estrogen receptor beta) | IC50 [2] | IC50 [3] | IC50 (Cytochrome P450 2D6) | Ki (Cytochrome P450 2D6) | IC50 [4] | Ki [4] | IC50 [5] | IC50 [6] | Ki [6]

COC(=O)C[C@](O)(CCC(C)(C)O)C(=O)O[C@@H]1C(OC)=C[C@]23CCCN2CCc2cc4c(cc2[C@H]13)OCO4 [HARRINGTONINE]
Not Active: IC50 [1] | IC50 (Estrogen receptor beta) | IC50 [2] | IC50 [3] | IC50 (Cytochrome P450 2D6) | Ki (Cytochrome P450 2D6) | IC50 [4] | Ki [4] | IC50 [5] | IC50 [6] | Ki [6]

CC(C)(c1ccc(O)cc1)c1ccc(O)cc1 [BISPHENOL A]
Not Active: IC50 [1] | IC50 (Estrogen receptor beta) | IC50 [2] | IC50 [3] | IC50 (Cytochrome P450 2D6) | Ki (Cytochrome P450 2D6) | IC50 [4] | Ki [4] | IC50 [5] | IC50 [6] | Ki [6]

CCN1CCN(C(=O)N[C@@H](C(=O)N[C@@H]2C(=O)N3[C@@H]2SC(C)(C)[C@@H]3C(=O)O)c2ccccc2)C(=O)C1=O [PIPERACILLIN]
Not Active: IC50 [1] | IC50 (Estrogen receptor beta) | IC50 [2] | IC50 [3] | IC50 (Cytochrome P450 2D6) | Ki (Cytochrome P450 2D6) | IC50 [4] | Ki [4] | IC50 [5] | IC50 [6] | Ki [6]

CC[C@H]1OC(=O)[C@H](C)[C@@H](O[C@H]2C[C@@](C)(OC)[C@@H](O)[C@H](C)O2)[C@H](C)[C@@H](O[C@@H]2O[C@H](C)C[C@H](N(C)C)[C@H]2O)[C@](C)(O)C[C@@H](C)C(=O)[C@H](C)[C@@H](O)[C@]1(C)O [ERYTHROMYCIN]
Not Active: IC50 [1] | IC50 (Estrogen receptor beta) | IC50 [2] | IC50 [3] | IC50 (Cytochrome P450 2D6) | Ki (Cytochrome P450 2D6) | IC50 [4] | Ki [4] | IC50 [5] | IC50 [6] | Ki [6]

CN(CCOc1ccc(C[C@H](Nc2ccccc2C(=O)c2ccccc2)C(=O)O)cc1)c1ccccn1
Not Active: IC50 [1] | IC50 (Estrogen receptor beta) | IC50 [2] | IC50 [3] | IC50 (Cytochrome P450 2D6) | Ki (Cytochrome P450 2D6) | IC50 [4] | Ki [4] | IC50 [5] | IC50 [6] | Ki [6]

COc1cc(NC(C)CCCN)c2ncccc2c1 (stereo not drawn) [PRIMAQUINE]
Not Active: IC50 [1] | IC50 (Estrogen receptor beta) | IC50 [2] | IC50 [3] | IC50 (Cytochrome P450 2D6) | Ki (Cytochrome P450 2D6) | IC50 [4] | Ki [4] | IC50 [5] | IC50 [6] | Ki [6]

CC(C)(C#N)c1cc(Cn2cncn2)cc(C(C)(C)C#N)c1 [ANASTROZOLE]
Not Active: IC50 [1] | IC50 (Estrogen receptor beta) | IC50 [2] | IC50 [3] | IC50 (Cytochrome P450 2D6) | Ki (Cytochrome P450 2D6) | IC50 [4] | Ki [4] | IC50 [5] | IC50 [6] | Ki [6]

Reference: ChEMBL document CHEMBL1909046, “DrugMatrix in vitro pharmacology data”
